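Each compound was tested at five concentrations against cells in 96-well plates for 48 hours. The concentration for 50% growth inhibition is given as GI50.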 Calls of active or inactive are those of the source. No stated cut-off is given here; in the data, active = GI50 up to about 1.1 µM and inactive = higher.
Key:
Test in all cases: NCI anticancer screen, dose series, 48 h
[1] = tested on: HL-60
[2] = tested on: OVCAR-3
[3] = tested on: OVCAR-8
[4] = tested on: HT-29
[5] = tested on: K562
[6] = tested on: ACHN
[7] = tested on: 786-0
[8] = tested on: SK-MEL-2
[9] = tested on: HOP-18
[10] = tested on: UO-31
[11] = tested on: U-251
[12] = tested on: SK-OV-3
[13] = tested on: M14
[14] = tested on: Malme-3M
[15] = tested on: LOX IMVI
[16] = tested on: DLD-1
[17] = tested on: DMS-273
[18] = tested on: RPMI-8226
[19] = tested on: HCT-15
[20] = tested on: KM12
[21] = tested on: UACC-257
[22] = tested on: NCI-H23
[23] = tested on: SF-295
[24] = tested on: NCI-H226
[25] = tested on: TK-10
[26] = tested on: KM-20L2
[27] = tested on: OVCAR-5
[28] = tested on: SN12C
[29] = tested on: SR
[30] = tested on: UACC-62
[31] = tested on: SK-MEL-5
[32] = tested on: NCI-H460
[33] = tested on: NCI-H522
[34] = tested on: A549
[35] = tested on: HCT-116
[36] = tested on: CAKI-1
[37] = tested on: SNB-19
[38] = tested on: SF-539
[39] = tested on: DMS-114
[40] = tested on: SNB-78
[41] = tested on: IGROV-1
[42] = tested on: HCC 2998
[43] = tested on: MOLT-4
[44] = tested on: RXF 393
[45] = tested on: COLO 205
[46] = tested on: A498
[47] = tested on: OVCAR-4
[48] = tested on: XF498
[49] = tested on: CCRF-CEM
[50] = tested on: M19-MEL
[51] = tested on: HOP-92
[52] = tested on: LXFL 529
[53] = tested on: SNB-75
[54] = tested on: SW-620
[55] = tested on: SK-MEL-28
[56] = tested on: EKVX
[57] = tested on: SF-268
[58] = tested on: HOP-62
[59] = tested on: RXF 631

CCCc1c(C(=O)OCC)[nH]c(-c2ccc(-c3[nH]c(C(=O)OCC)c(CCC)c3C(=O)OCC)o2)c1C(=O)OCC
GI50 [1]: > 100 µM (inactive)
GI50 [2]: > 100 µM (inactive)
GI50 [3]: > 100 µM (inactive)
GI50 [4]: > 100 µM (inactive)
GI50 [5]: > 100 µM (inactive)
GI50 [6]: > 100 µM (inactive)
GI50 [7]: > 100 µM (inactive)
GI50 [8]: > 100 µM (inactive)
GI50 [9]: > 100 µM (inactive)
GI50 [10]: > 100 µM (inactive)
GI50 [11]: > 100 µM (inactive)
GI50 [12]: > 100 µM (inactive)
GI50 [13]: > 100 µM (inactive)
GI50 [14]: > 100 µM (inactive)
GI50 [15]: > 100 µM (inactive)
GI50 [16]: > 100 µM (inactive)
GI50 [17]: > 100 µM (inactive)
GI50 [18]: > 100 µM (inactive)
GI50 [19]: > 100 µM
GI50 [20]: > 100 µM (inactive)
GI50 [21]: > 100 µM (inactive)
GI50 [22]: > 100 µM (inactive)
GI50 [23]: > 100 µM (inactive)
GI50 [24]: > 100 µM (inactive)
GI50 [25]: > 100 µM (inactive)
GI50 [26]: > 100 µM (inactive)
GI50 [27]: > 100 µM (inactive)
GI50 [28]: > 100 µM (inactive)
GI50 [29]: > 100 µM (inactive)
GI50 [30]: > 100 µM (inactive)
GI50 [31]: > 100 µM (inactive)
GI50 [32]: > 100 µM (inactive)
GI50 [33]: > 100 µM (inactive)
GI50 [34]: > 100 µM (inactive)
GI50 [35]: > 100 µM (inactive)
GI50 [36]: > 100 µM (inactive)
GI50 [37]: > 100 µM (inactive)
GI50 [38]: > 100 µM (inactive)
GI50 [39]: > 100 µM (inactive)
GI50 [40]: > 100 µM (inactive)
GI50 [41]: > 100 µM (inactive)
GI50 [42]: > 100 µM (inactive)
GI50 [43]: > 100 µM (inactive)
GI50 [44]: > 100 µM (inactive)
GI50 [45]: > 100 µM (inactive)
GI50 [46]: > 100 µM (inactive)
GI50 [47]: > 100 µM (inactive)
GI50 [48]: > 100 µM (inactive)
GI50 [49]: > 100 µM (inactive)
GI50 [50]: > 100 µM (inactive)
GI50 [51]: > 100 µM (inactive)
GI50 [52]: > 100 µM (inactive)
GI50 [53]: > 100 µM (inactive)
GI50 [54]: > 100 µM (inactive)
GI50 [55]: > 100 µM (inactive)
GI50 [56]: > 100 µM (inactive)
GI50 [57]: > 100 µM (inactive)

CC1CCCCc2nc3c(c(=O)n21)CCCC3 (stereo unspecified)
GI50 [2]: > 100 µM (inactive)
GI50 [3]: 63.2 µM (inactive)
GI50 [4]: > 100 µM (inactive)
GI50 [5]: > 100 µM (inactive)
GI50 [6]: > 100 µM (inactive)
GI50 [7]: > 100 µM (inactive)
GI50 [8]: > 100 µM (inactive)
GI50 [10]: > 100 µM (inactive)
GI50 [11]: > 100 µM (inactive)
GI50 [12]: > 100 µM (inactive)
GI50 [13]: > 100 µM (inactive)
GI50 [14]: > 100 µM (inactive)
GI50 [15]: > 100 µM (inactive)
GI50 [16]: > 100 µM (inactive)
GI50 [17]: > 100 µM (inactive)
GI50 [19]: > 100 µM
GI50 [20]: > 100 µM (inactive)
GI50 [21]: > 100 µM (inactive)
GI50 [58]: > 100 µM (inactive)
GI50 [22]: > 100 µM (inactive)
GI50 [23]: > 100 µM (inactive)
GI50 [24]: > 100 µM (inactive)
GI50 [25]: > 100 µM (inactive)
GI50 [26]: > 100 µM (inactive)
GI50 [27]: > 100 µM (inactive)
GI50 [28]: > 100 µM (inactive)
GI50 [30]: > 100 µM (inactive)
GI50 [32]: > 100 µM (inactive)
GI50 [33]: > 100 µM (inactive)
GI50 [34]: > 100 µM (inactive)
GI50 [35]: > 100 µM (inactive)
GI50 [36]: > 100 µM (inactive)
GI50 [37]: > 100 µM (inactive)
GI50 [38]: > 100 µM (inactive)
GI50 [40]: > 100 µM (inactive)
GI50 [41]: > 100 µM (inactive)
GI50 [42]: > 100 µM (inactive)
GI50 [43]: > 100 µM (inactive)
GI50 [45]: > 100 µM (inactive)
GI50 [47]: > 100 µM (inactive)
GI50 [48]: > 100 µM (inactive)
GI50 [50]: > 100 µM (inactive)
GI50 [51]: > 100 µM (inactive)
GI50 [52]: > 100 µM (inactive)
GI50 [53]: > 100 µM (inactive)
GI50 [54]: > 100 µM (inactive)
GI50 [55]: > 100 µM (inactive)
GI50 [57]: > 100 µM (inactive)
GI50 [59]: 29.4 µM (inactive)

From ChEMBL document CHEMBL1201862, “PubChem BioAssay data set” (2004)
